Results published in patent publication US20070208087A1, “Compounds, compositions and methods for the treatment of inflammatory diseases” (priority 2001, published 2007).
“And” between values parts separate entries of the source, which are not always exact repeats. Identical values can stand only once. Like-named read-outs stand apart in the source and are kept apart here.

Test system: Microglial cells
Experiment: Dose response inhibition of NO release from microglia, 0.75-200 μM (Example 8)
Assay type: cell-based
Method: This experiment was designed to determine dose response inhibition of NO release from microglia by bis- and tris-dihydroxyaryl compounds when stimulated with LPS/IFNγ. […] This experiment is designed to determine a dose response for various bis- and tris-dihydroxyaryl compounds. Microglial cells were plated into 96 well plates at 1×10^5 cells/ml. […] The doses tested were: 0.75 μM, 1.56 μM, 3.125 μM, 6.25 μM, 12.5 μM, 25 μM, 50 μM, 100 μM and 200 μM. Nitric oxide release was measured after 48 hours using the Griess reaction.

[1] = dose 0.75 μM, 48 hours, single replicates
[2] = dose 1.56 μM, 48 hours, single replicates
[3] = dose 3.125 μM, 48 hours, single replicates
[4] = dose 6.25 μM, 48 hours, single replicates
[5] = dose 12.5 μM, 48 hours, single replicates
[6] = dose 25 μM, 48 hours, single replicates
[7] = dose 50 μM, 48 hours, single replicates
[8] = dose 100 μM, 48 hours, single replicates
[9] = dose 200 μM, 48 hours, single replicates

O=C(NCc1ccc(O)c(O)c1)C(=Cc1ccc(O)c(O)c1)NC(=O)c1ccc(O)c(O)c1 [Compound 21, α-(3,4-dihydroxybenzamido)-3,4-dihydroxycinnamic acid 3,4-dihydroxybenzyl amide]
inhibition at 3.125 µM (Microglia, 48 h, dose 3.125 μM): -6.05% | inhibition at 6.25 µM (Microglia, 48 h, dose 6.25 μM, 48 hours, read-out: Avg % Inhibition): -1.84% | inhibition at 12.5 µM (Microglia, 48 h, dose 12.5 μM, 48 hours, read-out: Avg % Inhibition): 5% | inhibition at 25 µM (Microglia, 48 h, dose 25 μM, 48 hours, read-out: Avg % Inhibition): 2.9% | inhibition at 50 µM (Microglia, 48 h, dose 50 μM, 48 hours, read-out: Avg % Inhibition): 13.7% | inhibition at 50 µM (Microglia, 48 h, dose 50 μM, 48 hours, single replicates, read-out: % inhibition): 16.3% | inhibition at 100 µM (Microglia, 48 h, dose 100 μM, 48 hours, read-out: Avg % Inhibition): 33.7% | inhibition at 100 µM (Microglia, 48 h, dose 100 μM, 48 hours, single replicates, read-out: % inhibition): 33.7% | inhibition at 200 µM (Microglia, 48 h, dose 200 μM, 48 hours, read-out: Avg % Inhibition): 69% | inhibition at 200 µM (Microglia, 48 h, dose 200 μM, 48 hours, single replicates, read-out: % inhibition): 67.6% | μM NO release Avg (dose 0.75 μM, 48 hours): 22.865 µM | % inhibition [1]: −16.05% and −17.63% and −12.89% | OD values (printed under head μM NO release) [1]: 0.195 and 0.199 and 0.201 | μM NO release [1]: 22.344 µM and 22.969 µM and 23.281 µM | μM NO release Avg (dose 1.56 μM, 48 hours): 21.094 µM | % inhibition [2]: −8.16% and −9.74% and −1.84% | OD values (printed under head μM NO release) [2]: 0.181 and 0.189 and 0.191 | μM NO release [2]: 20.156 µM and 21.406 µM and 21.719 µM | μM NO release Avg (dose 3.125 μM, 48 hours): 20.990 µM | % inhibition [3]: −4.21% and −8.16% and −5.79% | OD values (printed under head μM NO release) [3]: 0.186 and 0.184 and 0.189 | μM NO release [3]: 20.938 µM and 20.625 µM and 21.406 µM | μM NO release Avg (dose 6.25 μM, 48 hours): 20.156 µM | % inhibition [4]: 2.89% and −3.42% | OD values (printed under head μM NO release) [4]: 0.183 and 0.175 and 0.185 | μM NO release [4]: 20.469 µM and 19.219 µM and 20.781 µM | μM NO release Avg (dose 12.5 μM, 48 hours): 18.802 µM | % inhibition [5]: 5.26% and −4.21% and 13.95% | OD values (printed under head μM NO release) [5]: 0.161 and 0.172 and 0.184 | μM NO release [5]: 17.031 µM and 18.750 µM and 20.625 µM | μM NO release Avg (dose 25 μM, 48 hours): 19.219 µM | % inhibition [6]: 7.63% and 1.32% and −0.26% | OD values (printed under head μM NO release) [6]: 0.179 and 0.169 and 0.177 | μM NO release [6]: 19.844 µM and 18.281 µM and 19.531 µM | μM NO release Avg (dose 50 μM, 48 hours): 17.083 µM | % inhibition [7]: 10.79% and 13.95% | OD values (printed under head μM NO release) [7]: 0.161 and 0.158 and 0.165 | μM NO release [7]: 17.031 µM and 16.563 µM and 17.656 µM | μM NO release Avg (dose 100 μM, 48 hours): 13.125 µM | OD values (printed under head μM NO release) [8]: 0.136 | μM NO release [8]: 13.125 µM | Avg % Inhibition (dose 200 μM, 48 hours): 69.211% | μM NO release Avg (dose 200 μM, 48 hours): 6.094 µM | % inhibition [9]: 68.42% and 71.58% | OD values (printed under head μM NO release) [9]: 0.087 and 0.093 and 0.092 | μM NO release [9]: 5.625 µM and 6.41 µM | inhibition of NO release, in words (dose response 0.75-200 μM): effective inhibitors of NO release
